These results are taken from paper PMC4924682, “Monoamine oxidase A (MAO A) inhibitors decrease glioma progression” (Oncotarget, 2016).

Assay [1] concerns the target T1, Monoamine Oxidase A (MAO A) (Homo sapiens, UniProt P21397).
T1 construct: gene MAOA
T1 sequence (P21397 1-527): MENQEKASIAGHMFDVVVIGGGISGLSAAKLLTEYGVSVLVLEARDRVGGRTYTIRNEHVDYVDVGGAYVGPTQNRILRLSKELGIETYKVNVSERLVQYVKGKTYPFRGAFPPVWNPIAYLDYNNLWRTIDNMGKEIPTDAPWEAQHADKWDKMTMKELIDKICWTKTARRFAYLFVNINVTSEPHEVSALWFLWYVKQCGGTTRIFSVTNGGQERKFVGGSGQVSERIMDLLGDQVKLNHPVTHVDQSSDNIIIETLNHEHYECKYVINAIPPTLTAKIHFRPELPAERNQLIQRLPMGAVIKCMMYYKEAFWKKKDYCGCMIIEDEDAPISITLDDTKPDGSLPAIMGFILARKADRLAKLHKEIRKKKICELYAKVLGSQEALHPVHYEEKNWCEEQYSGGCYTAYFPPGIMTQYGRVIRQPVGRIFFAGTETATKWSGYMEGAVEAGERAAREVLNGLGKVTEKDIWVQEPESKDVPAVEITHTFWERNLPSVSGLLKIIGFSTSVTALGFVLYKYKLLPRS
Nature of the assay: radioassay of […]-5-HT turnover in U251S and U251R human glioma cells. It is filed as cell-based.

Assay [2] addresses T2, Monoamine Oxidase A (MAO A) (Mus musculus, UniProt Q64133).
T2 construct: gene Maoa
T2 sequence (Q64133 1-526): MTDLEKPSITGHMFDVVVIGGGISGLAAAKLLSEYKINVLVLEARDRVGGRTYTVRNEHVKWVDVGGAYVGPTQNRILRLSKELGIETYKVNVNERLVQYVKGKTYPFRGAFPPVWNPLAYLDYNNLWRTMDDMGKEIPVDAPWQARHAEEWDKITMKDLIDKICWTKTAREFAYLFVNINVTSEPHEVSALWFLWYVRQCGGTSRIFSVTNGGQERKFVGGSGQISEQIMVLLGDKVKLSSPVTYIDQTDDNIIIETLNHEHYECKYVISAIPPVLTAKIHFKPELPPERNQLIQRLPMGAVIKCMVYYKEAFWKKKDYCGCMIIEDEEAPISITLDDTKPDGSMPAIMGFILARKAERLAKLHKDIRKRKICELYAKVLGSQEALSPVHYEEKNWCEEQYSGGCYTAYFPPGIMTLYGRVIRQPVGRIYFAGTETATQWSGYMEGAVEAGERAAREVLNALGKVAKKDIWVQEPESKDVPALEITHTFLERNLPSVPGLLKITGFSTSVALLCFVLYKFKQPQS
The assay can be described thus: radioassay of […]-5-HT turnover in GL26 mouse glioma cells. It is filed as cell-based.

Regarding `NCCc1c[nH]c2ccc(O)cc12` [serotonin], the “radioassay of 14C-5-HT turnover in U251S and U251R human glioma cells” value in assay [1] is “MAO A catalytic activity was determined in human and mouse glioma cell lines using serotonin as the substrate”. In assay [2], the “radioassay of 14C-5-HT turnover in GL26 mouse glioma cells” value is “MAO A catalytic activity was determined in human and mouse glioma cell lines using serotonin as the substrate”.
